According to patent US20230091810A1, “FIRST-IN-CLASS OF SHMT2 AND MTHFD2 INHIBITORS AS ANTITUMOR AGENTS” (Duquesne University of the Holy Spirit, priority 2017, published 2023):

Tests used:
R2 (null) (CHO) = assay: proliferation assay, R2 transporter-null CHO cells; assay type: cell-based, Chinese hamster; settings: Cricetulus griseus, folate-/glycine-free RPMI1640 with 25 nM leucovorin, 96 h, drug 0-1000 nM, read-out: IC50s (SE) R2 (null) (CHO)
Method: Proliferation assays were performed with engineered Chinese hamster ovary (CHO) cell lines R2 (transporter-null), PC43-10 (expresses RFC only), RT16 (FRα only), and R2/PCFT4 (PCFT only) cultured in folate-/glycine-free RPMI1640 supplemented with 25 nM leucovorin. Additional results are shown for HCT116 (colon tumor cells (CTC)), IGROV1 (epithelial ovarian cancer (EOC) cells), H460 (non-small cell lung cancer (NSCLC) cells), MIAPaCa-2 (pancreatic cancer (PaC) cells), and HPAC (PaC).
Cell culture and proliferation/protection assays. […]
For proliferation assays with the CHO cell lines, the cells were treated with drugs (0-1 µM) in a 96-well plate (2000 cells/well) in glycine-free, nucleoside-free folate-free RPMI supplemented with 10% dialyzed fetal bovine serum, 1% penicillin/streptomycin, 2 mM L-glutamine, and 25 nM leucovorin (final volume 200 µL) over a 96 h incubation period at 37° C. with 5% CO2. […] To quantify viable cells, the media was removed and plates were washed once with 100 µL Dulbecco’s Phosphate-Buffered Saline (PBS), after which 100 µL PBS and 20 µL Cell Titer-blue (Promega) were added. Relative cell numbers were proportional to the fluorescence measured with a fluorescence plate reader (590 nm emission, 560 nm excitation). […]

R2/PCFT4 (CHO) = assay: proliferation assay, R2/PCFT4 CHO cells expressing PCFT only; assay type: cell-based, Chinese hamster; settings: Cricetulus griseus, folate-/glycine-free RPMI1640 with 25 nM leucovorin, 96 h, drug 0-1000 nM, read-out: IC50s (SE) R2/PCFT4 (CHO)
AICARFTase = AICARFTase (Homo sapiens, UniProt P31939); assay: in vitro inhibition of purified AICARFTase (ATIC)
Sequence of AICARFTase (P31939 whole entry): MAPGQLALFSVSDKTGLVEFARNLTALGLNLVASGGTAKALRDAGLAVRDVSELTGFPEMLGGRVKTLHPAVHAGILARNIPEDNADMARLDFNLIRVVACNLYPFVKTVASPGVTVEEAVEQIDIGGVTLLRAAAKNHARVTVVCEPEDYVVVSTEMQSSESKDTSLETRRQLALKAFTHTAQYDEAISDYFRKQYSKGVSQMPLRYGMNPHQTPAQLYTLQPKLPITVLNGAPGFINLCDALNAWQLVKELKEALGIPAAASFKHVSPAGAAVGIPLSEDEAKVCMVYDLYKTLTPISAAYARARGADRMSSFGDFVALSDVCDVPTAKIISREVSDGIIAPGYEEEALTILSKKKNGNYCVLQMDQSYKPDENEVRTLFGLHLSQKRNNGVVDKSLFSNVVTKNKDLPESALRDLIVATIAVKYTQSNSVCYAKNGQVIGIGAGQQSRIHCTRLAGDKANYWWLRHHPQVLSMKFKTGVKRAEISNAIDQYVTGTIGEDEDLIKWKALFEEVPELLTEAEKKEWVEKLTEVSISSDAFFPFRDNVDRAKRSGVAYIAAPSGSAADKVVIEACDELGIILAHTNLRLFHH

- Ki (AICARFTase): 10900 ± 6070 nM
SMILES: Nc1nc2ccn(CCCc3ccc(C(=O)N[C@@H](CCC(=O)O)C(=O)O)cc3)c2c(=O)[nH]1 [AGF291]
- IC50 (R2 (null) (CHO)): > 1000 nM
- IC50 (R2/PCFT4 (CHO)): 282 nM
